# According to ChEMBL document CHEMBL3885881, “DrugMatrix”:
# Species: Rattus norvegicus
# Test: DrugMatrix - Regimen: Daily Repeat
# Type: toxicity, organism-based, Sprague-Dawley
# Set-up: regimen Daily Repeat, gender Male, age 6-8 weeks
# Conditions: in vivo, po, route oral GAVAGE, […]; for ABSOLUTE BASOPHIL / ABSOLUTE EOSINOPHIL / ABSOLUTE LYMPHOCYTE / ABSOLUTE MONOCYTE / ABSOLUTE SEGMENTED NEUTROPHIL / BASOPHIL / EOSINOPHIL / ERYTHROCYTE COUNT / HEMATOCRIT / HEMOGLOBIN / LEUKOCYTE COUNT / LYMPHOCYTE / MEAN CORPUSCULAR HEMOGLOBIN / MEAN CORPUSCULAR HEMOGLOBIN CONCENTRATION / MEAN CORPUSCULAR VOLUME / MONOCYTE / NEUTROPHIL / NUCLEATED RED BLOOD CELLS / PLATELET COUNT: tissue Blood; for ALANINE AMINOTRANSFERASE / ALBUMIN / ALKALINE PHOSPHATASE / ASPARTATE AMINOTRANSFERASE / BLOOD UREA NITROGEN / CARBON DIOXIDE / CHLORIDE / CHOLESTEROL / CREATINE PHOSPHOKINASE / CREATININE / GLUCOSE / LACTATE DEHYDROGENASE / LIPASE / PHOSPHORUS / POTASSIUM / SODIUM / TOTAL BILIRUBIN / TOTAL PROTEIN / URIC ACID: tissue Plasma
# [1] = 0 mg/kg, 72 h, dose level Control, time 3 day
# [2] = 0 mg/kg, 120 h, dose level Control, time 5 day
# [3] = 100 mg/kg, 72 h, dose level Low, time 3 day
compound,measurement,setting,value
CC(C)(Oc1ccc(Cl)cc1)C(=O)O [CLOFIBRIC ACID],ABSOLUTE BASOPHIL,[1],0 CELLS/uL
same,ABSOLUTE EOSINOPHIL,[1],0 CELLS/uL
same,ABSOLUTE LYMPHOCYTE,[1],14687.67 CELLS/uL
same,ABSOLUTE MONOCYTE,[1],164 CELLS/uL
same,ABSOLUTE SEGMENTED NEUTROPHIL,[1],1748.33 CELLS/uL
same,BASOPHIL,[1],0%
same,EOSINOPHIL,[1],0%
same,ERYTHROCYTE COUNT,[1],5.51 x10E6/uL
same,HEMATOCRIT,[1],33.68%
same,HEMOGLOBIN,[1],13.4 G/DL
same,LEUKOCYTE COUNT,[1],16.6 x10E3/uL
same,LYMPHOCYTE,[1],88.83%
same,MEAN CORPUSCULAR HEMOGLOBIN,[1],24.47 pg
same,MEAN CORPUSCULAR HEMOGLOBIN CONCENTRATION,[1],39.82 G/DL
same,MEAN CORPUSCULAR VOLUME,[1],61.23 fL
same,MONOCYTE,[1],0.83%
same,NEUTROPHIL,[1],10.33%
same,NUCLEATED RED BLOOD CELLS,[1],0 /100WBC
same,PLATELET COUNT,[1],1329.67 x10E3/uL
same,ALANINE AMINOTRANSFERASE,[1],61.33 u/L
same,ALBUMIN,[1],4.18 G/DL
same,ALKALINE PHOSPHATASE,[1],332.5 u/L
same,ASPARTATE AMINOTRANSFERASE,[1],98.33 u/L
same,BLOOD UREA NITROGEN,[1],15.83 mg/dL
same,CARBON DIOXIDE,[1],27.83 mmol/L
same,CHLORIDE,[1],100 MEQ/L
same,CHOLESTEROL,[1],76.17 mg/dL
same,CREATINE PHOSPHOKINASE,[1],729.17 u/L
same,CREATININE,[1],0.21 mg/dL
same,GLUCOSE,[1],151.83 mg/dL
same,LACTATE DEHYDROGENASE,[1],484.67 u/L
same,LIPASE,[1],10 u/L
same,PHOSPHORUS,[1],11.3 mg/dL
same,POTASSIUM,[1],6.1 MEQ/L
same,SODIUM,[1],142.9 MEQ/L
same,TOTAL BILIRUBIN,[1],0.23 mg/dL
same,TOTAL PROTEIN,[1],5.68 G/DL
same,URIC ACID,[1],1.75 mg/dL
same,ABSOLUTE BASOPHIL,[2],0 CELLS/uL
same,ABSOLUTE EOSINOPHIL,[2],58.67 CELLS/uL
same,ABSOLUTE LYMPHOCYTE,[2],15950.83 CELLS/uL
same,ABSOLUTE MONOCYTE,[2],172.5 CELLS/uL
same,ABSOLUTE SEGMENTED NEUTROPHIL,[2],2551.33 CELLS/uL
same,BASOPHIL,[2],0%
same,EOSINOPHIL,[2],0.33%
same,ERYTHROCYTE COUNT,[2],5.5 x10E6/uL
same,HEMATOCRIT,[2],34.05%
same,HEMOGLOBIN,[2],13.42 G/DL
same,LEUKOCYTE COUNT,[2],18.73 x10E3/uL
same,LYMPHOCYTE,[2],84.5%
same,MEAN CORPUSCULAR HEMOGLOBIN,[2],24.42 pg
same,MEAN CORPUSCULAR HEMOGLOBIN CONCENTRATION,[2],39.42 G/DL
same,MEAN CORPUSCULAR VOLUME,[2],61.97 fL
same,MONOCYTE,[2],1%
same,NEUTROPHIL,[2],14.17%
same,NUCLEATED RED BLOOD CELLS,[2],0.33 /100WBC
same,PLATELET COUNT,[2],1143.17 x10E3/uL
same,ALANINE AMINOTRANSFERASE,[2],57 u/L
same,ALBUMIN,[2],4.17 G/DL
same,ALKALINE PHOSPHATASE,[2],347.33 u/L
same,ASPARTATE AMINOTRANSFERASE,[2],93.67 u/L
same,BLOOD UREA NITROGEN,[2],15.67 mg/dL
same,CARBON DIOXIDE,[2],27.17 mmol/L
same,CHLORIDE,[2],104.33 MEQ/L
same,CHOLESTEROL,[2],69.5 mg/dL
same,CREATINE PHOSPHOKINASE,[2],317.17 u/L
same,CREATININE,[2],0.2 mg/dL
same,GLUCOSE,[2],162.33 mg/dL
same,LACTATE DEHYDROGENASE,[2],408.67 u/L
same,LIPASE,[2],10.17 u/L
same,PHOSPHORUS,[2],11.08 mg/dL
same,POTASSIUM,[2],6.36 MEQ/L
same,SODIUM,[2],146.07 MEQ/L
same,TOTAL BILIRUBIN,[2],0.22 mg/dL
same,TOTAL PROTEIN,[2],5.92 G/DL
same,URIC ACID,[2],1.47 mg/dL
same,ABSOLUTE BASOPHIL,[3],0 CELLS/uL
same,ABSOLUTE EOSINOPHIL,[3],83.33 CELLS/uL
same,ABSOLUTE LYMPHOCYTE,[3],12714.67 CELLS/uL
same,ABSOLUTE MONOCYTE,[3],127.67 CELLS/uL
same,ABSOLUTE SEGMENTED NEUTROPHIL,[3],1507.67 CELLS/uL
same,BASOPHIL,[3],0%
same,EOSINOPHIL,[3],0.67%
same,ERYTHROCYTE COUNT,[3],5.9 x10E6/uL
same,HEMATOCRIT,[3],36.47%
same,HEMOGLOBIN,[3],14.53 G/DL
same,LEUKOCYTE COUNT,[3],14.43 x10E3/uL
same,LYMPHOCYTE,[3],88%
same,MEAN CORPUSCULAR HEMOGLOBIN,[3],24.67 pg
same,MEAN CORPUSCULAR HEMOGLOBIN CONCENTRATION,[3],39.87 G/DL
same,MEAN CORPUSCULAR VOLUME,[3],61.83 fL
same,MONOCYTE,[3],1%
same,NEUTROPHIL,[3],10.33%
same,NUCLEATED RED BLOOD CELLS,[3],0 /100WBC
same,PLATELET COUNT,[3],1176.67 x10E3/uL
same,ALANINE AMINOTRANSFERASE,[3],51 u/L
same,ALBUMIN,[3],4.33 G/DL
same,ALKALINE PHOSPHATASE,[3],364.33 u/L
same,ASPARTATE AMINOTRANSFERASE,[3],99.67 u/L
same,BLOOD UREA NITROGEN,[3],17 mg/dL
same,CARBON DIOXIDE,[3],27 mmol/L
same,CHLORIDE,[3],96 MEQ/L
same,CHOLESTEROL,[3],62 mg/dL
same,CREATINE PHOSPHOKINASE,[3],636.33 u/L
same,CREATININE,[3],0.34 mg/dL
same,GLUCOSE,[3],180.67 mg/dL
same,LACTATE DEHYDROGENASE,[3],303.67 u/L
same,LIPASE,[3],9.33 u/L
same,PHOSPHORUS,[3],11.9 mg/dL
same,POTASSIUM,[3],5.92 MEQ/L
same,SODIUM,[3],141 MEQ/L
same,TOTAL BILIRUBIN,[3],0.1 mg/dL
same,TOTAL PROTEIN,[3],5.8 G/DL
same,URIC ACID,[3],2.07 mg/dL
